These results are taken from ChEMBL document CHEMBL5465560, “Selectivity Literature for EUbOPEN Chemogenomic Library” (2024).

For assay [1], the target named is Mitogen-activated protein kinase 14 (Homo sapiens, UniProt Q16539). The following applies: at 10 µM.
Assay [2] has as its target T1, Calcium/calmodulin-dependent protein kinase type IV (Homo sapiens) (UniProt Q16566).
T1 sequence (whole entry): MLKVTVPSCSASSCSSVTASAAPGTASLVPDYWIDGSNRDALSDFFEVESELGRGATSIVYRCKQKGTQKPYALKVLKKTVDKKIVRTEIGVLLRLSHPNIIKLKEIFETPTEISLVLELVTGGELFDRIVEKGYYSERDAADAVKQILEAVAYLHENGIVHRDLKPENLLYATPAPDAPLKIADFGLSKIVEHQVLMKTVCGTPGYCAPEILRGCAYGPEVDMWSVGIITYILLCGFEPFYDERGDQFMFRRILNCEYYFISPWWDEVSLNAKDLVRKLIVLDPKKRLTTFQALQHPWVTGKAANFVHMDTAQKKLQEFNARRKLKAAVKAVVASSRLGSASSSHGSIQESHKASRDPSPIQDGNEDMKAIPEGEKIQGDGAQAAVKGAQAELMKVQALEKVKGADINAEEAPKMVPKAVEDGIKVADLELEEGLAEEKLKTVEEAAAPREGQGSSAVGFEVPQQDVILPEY
The assay can be described thus: Selectivity interaction (Ambit KINOMEscan and KiNATiv profiling in Jurkat cells) EUB0000090b CAMK4. To be noted: at 1 µM. The assay is classed as cell-based.

Assay [3] concerns the target Mitogen-activated protein kinase kinase kinase 20 (Homo sapiens) (UniProt Q9NYL2). Briefly: Selectivity interaction (KinomeScan (DiscoverX)) EUB0001049a MAP3K20. To be noted: at 1 µM.
In assay [4] the target is Phosphorylase b kinase gamma catalytic chain, skeletal muscle/heart isoform (Homo sapiens) (UniProt Q16816). Briefly: Selectivity interaction (KinomeScan (DiscoverX)) EUB0001049a PHKG1. To be noted: at 1 µM.
Assay [5] concerns the target Dual specificity protein kinase CLK4 (Homo sapiens, UniProt Q9HAZ1). The assay can be described thus: Selectivity interaction (KinomeScan (DiscoverX)) EUB0000045b CLK4.
Assay [6] concerns the target T2, Receptor-interacting serine/threonine-protein kinase 4 (Homo sapiens) (UniProt P57078).
T2 sequence (whole entry): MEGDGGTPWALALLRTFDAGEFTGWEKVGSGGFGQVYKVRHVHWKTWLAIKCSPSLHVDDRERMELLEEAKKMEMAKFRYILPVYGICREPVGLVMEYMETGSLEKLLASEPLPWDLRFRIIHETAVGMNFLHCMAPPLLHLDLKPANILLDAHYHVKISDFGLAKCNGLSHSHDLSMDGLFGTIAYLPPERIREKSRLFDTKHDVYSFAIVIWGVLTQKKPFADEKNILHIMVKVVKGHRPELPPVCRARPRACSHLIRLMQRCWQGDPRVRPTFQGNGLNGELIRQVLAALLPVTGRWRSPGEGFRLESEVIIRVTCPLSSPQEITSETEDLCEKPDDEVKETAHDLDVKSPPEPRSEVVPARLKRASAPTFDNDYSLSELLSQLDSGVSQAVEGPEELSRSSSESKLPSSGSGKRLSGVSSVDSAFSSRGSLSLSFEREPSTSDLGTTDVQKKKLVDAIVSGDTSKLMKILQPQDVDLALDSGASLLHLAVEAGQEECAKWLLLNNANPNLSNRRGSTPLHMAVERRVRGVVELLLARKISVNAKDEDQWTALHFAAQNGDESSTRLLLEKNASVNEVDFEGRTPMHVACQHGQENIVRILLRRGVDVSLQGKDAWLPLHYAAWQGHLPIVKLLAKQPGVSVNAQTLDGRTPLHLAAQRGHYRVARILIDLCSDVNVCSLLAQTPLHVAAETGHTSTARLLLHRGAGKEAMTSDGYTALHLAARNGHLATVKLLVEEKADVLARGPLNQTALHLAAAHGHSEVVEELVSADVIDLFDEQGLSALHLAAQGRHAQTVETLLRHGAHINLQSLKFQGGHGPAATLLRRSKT
Briefly: Selectivity interaction (KinomeScan (DiscoverX)) EUB0000045b RIPK4.

For assay [7], the target named is Myosin-IIIa (Homo sapiens) (UniProt Q8NEV4). Briefly: Selectivity interaction (KinomeScan (DiscoverX)) EUB0000666a MYO3A. The following applies: at 10 µM.
For assay [8], the target named is Tyrosine-protein kinase Lck (Homo sapiens, UniProt P06239). The assay can be described thus: Selectivity interaction (KinomeScan (DiscoverX)) EUB0000607a LCK. To be noted: at 10 µM.
Assay [9] deals with Protein-tyrosine kinase 6 (Homo sapiens, UniProt Q13882). Briefly: Selectivity interaction (Kinase panel (Invitrogen)) EUB0000639a PTK6. The following applies: at 200 nM.
Assay [10] concerns the target T3, Eukaryotic elongation factor 2 kinase (Homo sapiens) (UniProt O00418).
T3 sequence (whole entry): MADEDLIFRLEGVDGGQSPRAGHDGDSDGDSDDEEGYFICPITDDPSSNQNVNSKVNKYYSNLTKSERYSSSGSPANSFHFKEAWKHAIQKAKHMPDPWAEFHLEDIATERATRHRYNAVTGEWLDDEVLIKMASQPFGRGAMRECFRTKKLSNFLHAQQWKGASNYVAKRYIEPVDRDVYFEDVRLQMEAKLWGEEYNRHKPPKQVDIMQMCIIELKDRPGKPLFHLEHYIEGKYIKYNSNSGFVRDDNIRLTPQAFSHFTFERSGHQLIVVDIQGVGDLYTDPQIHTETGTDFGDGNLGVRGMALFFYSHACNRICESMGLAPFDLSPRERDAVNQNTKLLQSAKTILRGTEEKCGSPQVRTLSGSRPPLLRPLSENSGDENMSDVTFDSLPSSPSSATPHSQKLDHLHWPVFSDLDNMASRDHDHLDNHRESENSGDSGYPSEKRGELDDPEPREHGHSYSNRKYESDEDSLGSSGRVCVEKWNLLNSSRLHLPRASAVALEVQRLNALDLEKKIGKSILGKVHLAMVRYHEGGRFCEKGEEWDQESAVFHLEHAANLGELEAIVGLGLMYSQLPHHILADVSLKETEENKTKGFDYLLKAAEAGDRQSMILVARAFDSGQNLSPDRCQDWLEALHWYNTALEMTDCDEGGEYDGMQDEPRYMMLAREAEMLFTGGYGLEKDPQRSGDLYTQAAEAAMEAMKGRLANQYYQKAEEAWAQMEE
The assay can be described thus: Selectivity interaction (Kinase panel (Invitrogen)) EUB0000639a EEF2K. The following applies: at 200 nM.

Sequence of Dual specificity protein kinase CLK4 (Q9HAZ1 whole entry, looked up): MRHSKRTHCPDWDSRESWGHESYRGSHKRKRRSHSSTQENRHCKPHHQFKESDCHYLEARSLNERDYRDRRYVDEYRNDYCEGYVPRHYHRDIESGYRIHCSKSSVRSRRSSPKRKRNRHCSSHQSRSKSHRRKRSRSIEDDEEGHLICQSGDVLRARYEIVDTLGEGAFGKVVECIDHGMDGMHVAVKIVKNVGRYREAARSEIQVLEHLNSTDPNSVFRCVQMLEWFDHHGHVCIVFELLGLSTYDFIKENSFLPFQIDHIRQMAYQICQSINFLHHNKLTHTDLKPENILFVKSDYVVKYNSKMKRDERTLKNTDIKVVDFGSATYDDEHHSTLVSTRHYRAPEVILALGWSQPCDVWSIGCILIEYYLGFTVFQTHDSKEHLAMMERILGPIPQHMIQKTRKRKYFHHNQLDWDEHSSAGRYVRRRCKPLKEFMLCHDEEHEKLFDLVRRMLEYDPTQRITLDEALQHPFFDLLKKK
Sequence of Protein-tyrosine kinase 6 (Q13882 whole entry, looked up): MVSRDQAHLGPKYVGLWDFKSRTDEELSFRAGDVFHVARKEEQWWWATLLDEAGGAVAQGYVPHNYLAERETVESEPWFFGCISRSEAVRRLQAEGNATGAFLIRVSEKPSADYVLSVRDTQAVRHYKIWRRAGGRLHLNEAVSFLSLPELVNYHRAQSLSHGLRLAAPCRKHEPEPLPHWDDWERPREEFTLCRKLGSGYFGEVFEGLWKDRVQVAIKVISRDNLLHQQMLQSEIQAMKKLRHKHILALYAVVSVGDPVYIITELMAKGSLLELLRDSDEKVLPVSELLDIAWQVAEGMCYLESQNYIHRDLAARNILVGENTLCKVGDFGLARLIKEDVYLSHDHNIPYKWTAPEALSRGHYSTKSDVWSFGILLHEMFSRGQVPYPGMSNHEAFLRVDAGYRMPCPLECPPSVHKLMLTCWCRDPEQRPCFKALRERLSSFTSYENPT
Sequence of Mitogen-activated protein kinase 14 (Q16539 whole entry): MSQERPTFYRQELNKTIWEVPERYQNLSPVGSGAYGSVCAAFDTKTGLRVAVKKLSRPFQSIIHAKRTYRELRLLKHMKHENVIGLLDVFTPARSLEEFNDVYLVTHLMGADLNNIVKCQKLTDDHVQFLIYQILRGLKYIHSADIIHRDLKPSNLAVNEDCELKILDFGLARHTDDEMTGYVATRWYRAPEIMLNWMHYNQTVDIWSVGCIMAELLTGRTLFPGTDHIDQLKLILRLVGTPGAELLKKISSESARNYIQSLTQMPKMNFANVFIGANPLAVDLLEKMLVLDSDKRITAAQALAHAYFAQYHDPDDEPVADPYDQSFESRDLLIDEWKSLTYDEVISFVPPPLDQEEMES
Sequence of Tyrosine-protein kinase Lck (P06239 2-509 limits assumed): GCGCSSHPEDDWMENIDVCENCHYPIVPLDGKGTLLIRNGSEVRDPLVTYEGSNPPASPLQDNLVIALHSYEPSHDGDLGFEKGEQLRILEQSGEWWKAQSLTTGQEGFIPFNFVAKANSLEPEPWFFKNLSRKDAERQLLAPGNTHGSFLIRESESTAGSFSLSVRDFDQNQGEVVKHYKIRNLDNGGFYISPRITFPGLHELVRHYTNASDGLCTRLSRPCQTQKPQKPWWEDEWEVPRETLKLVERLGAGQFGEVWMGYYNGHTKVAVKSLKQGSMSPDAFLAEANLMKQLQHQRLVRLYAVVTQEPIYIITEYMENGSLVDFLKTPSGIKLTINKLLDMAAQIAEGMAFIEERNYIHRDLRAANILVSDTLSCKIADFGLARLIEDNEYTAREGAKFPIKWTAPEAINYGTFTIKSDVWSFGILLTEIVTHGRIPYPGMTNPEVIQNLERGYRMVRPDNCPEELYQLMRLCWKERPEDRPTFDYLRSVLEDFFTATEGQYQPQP
Sequence of Myosin-IIIa (Homo sapiens) (Q8NEV4 whole entry): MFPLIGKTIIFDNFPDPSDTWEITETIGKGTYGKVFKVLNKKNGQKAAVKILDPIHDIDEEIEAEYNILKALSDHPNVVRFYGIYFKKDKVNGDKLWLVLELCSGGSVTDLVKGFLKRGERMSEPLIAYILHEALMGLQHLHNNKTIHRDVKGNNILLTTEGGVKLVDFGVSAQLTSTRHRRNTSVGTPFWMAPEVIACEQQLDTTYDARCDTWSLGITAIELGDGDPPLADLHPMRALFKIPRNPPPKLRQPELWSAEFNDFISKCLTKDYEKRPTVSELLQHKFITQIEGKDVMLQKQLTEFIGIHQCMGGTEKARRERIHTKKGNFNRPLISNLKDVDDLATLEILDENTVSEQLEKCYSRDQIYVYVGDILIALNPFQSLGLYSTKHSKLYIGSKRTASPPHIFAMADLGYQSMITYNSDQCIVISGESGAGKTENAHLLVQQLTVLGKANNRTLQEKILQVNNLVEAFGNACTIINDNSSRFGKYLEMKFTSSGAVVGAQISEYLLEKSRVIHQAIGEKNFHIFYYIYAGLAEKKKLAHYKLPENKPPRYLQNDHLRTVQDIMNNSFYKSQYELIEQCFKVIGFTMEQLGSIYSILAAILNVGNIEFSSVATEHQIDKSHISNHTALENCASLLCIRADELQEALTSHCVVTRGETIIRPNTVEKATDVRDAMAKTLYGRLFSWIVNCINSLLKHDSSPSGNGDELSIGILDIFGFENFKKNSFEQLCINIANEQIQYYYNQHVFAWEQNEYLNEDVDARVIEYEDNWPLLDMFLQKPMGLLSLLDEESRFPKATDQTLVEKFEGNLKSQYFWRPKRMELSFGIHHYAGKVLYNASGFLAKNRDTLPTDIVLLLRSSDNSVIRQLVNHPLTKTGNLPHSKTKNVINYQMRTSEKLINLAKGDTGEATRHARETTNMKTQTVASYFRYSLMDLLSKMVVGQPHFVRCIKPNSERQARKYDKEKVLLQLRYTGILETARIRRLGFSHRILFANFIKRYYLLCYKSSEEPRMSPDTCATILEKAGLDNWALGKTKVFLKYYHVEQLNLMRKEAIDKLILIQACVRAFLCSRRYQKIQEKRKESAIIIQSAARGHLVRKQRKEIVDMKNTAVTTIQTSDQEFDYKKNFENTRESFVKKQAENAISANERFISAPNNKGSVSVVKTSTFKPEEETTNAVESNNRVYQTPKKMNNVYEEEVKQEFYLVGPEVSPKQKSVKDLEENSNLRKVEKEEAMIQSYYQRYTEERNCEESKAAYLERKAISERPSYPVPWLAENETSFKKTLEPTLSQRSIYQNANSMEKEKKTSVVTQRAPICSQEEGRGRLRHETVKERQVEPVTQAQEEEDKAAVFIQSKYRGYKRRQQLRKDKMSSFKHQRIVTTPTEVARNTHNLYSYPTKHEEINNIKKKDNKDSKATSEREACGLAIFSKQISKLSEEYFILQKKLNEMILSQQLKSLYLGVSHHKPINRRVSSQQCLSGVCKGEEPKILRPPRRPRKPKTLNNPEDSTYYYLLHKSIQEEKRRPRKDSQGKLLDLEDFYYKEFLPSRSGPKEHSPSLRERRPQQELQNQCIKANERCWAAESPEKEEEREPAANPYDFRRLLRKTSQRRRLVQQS
Sequence of Phosphorylase b kinase gamma catalytic chain, skeletal muscle/heart isoform (Homo sapiens) (Q16816 whole entry, looked up, canonical isoform): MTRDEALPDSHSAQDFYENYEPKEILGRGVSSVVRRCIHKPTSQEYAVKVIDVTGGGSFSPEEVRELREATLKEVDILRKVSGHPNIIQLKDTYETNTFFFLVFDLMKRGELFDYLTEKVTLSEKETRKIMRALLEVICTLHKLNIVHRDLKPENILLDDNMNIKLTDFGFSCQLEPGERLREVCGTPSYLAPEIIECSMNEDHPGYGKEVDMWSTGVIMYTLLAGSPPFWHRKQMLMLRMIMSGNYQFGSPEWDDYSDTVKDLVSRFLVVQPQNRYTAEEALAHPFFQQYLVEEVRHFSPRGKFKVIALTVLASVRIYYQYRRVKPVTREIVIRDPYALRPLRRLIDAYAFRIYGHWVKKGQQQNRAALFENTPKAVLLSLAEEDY
Sequence of Mitogen-activated protein kinase kinase kinase 20 (Homo sapiens) (Q9NYL2 2-800 limits assumed): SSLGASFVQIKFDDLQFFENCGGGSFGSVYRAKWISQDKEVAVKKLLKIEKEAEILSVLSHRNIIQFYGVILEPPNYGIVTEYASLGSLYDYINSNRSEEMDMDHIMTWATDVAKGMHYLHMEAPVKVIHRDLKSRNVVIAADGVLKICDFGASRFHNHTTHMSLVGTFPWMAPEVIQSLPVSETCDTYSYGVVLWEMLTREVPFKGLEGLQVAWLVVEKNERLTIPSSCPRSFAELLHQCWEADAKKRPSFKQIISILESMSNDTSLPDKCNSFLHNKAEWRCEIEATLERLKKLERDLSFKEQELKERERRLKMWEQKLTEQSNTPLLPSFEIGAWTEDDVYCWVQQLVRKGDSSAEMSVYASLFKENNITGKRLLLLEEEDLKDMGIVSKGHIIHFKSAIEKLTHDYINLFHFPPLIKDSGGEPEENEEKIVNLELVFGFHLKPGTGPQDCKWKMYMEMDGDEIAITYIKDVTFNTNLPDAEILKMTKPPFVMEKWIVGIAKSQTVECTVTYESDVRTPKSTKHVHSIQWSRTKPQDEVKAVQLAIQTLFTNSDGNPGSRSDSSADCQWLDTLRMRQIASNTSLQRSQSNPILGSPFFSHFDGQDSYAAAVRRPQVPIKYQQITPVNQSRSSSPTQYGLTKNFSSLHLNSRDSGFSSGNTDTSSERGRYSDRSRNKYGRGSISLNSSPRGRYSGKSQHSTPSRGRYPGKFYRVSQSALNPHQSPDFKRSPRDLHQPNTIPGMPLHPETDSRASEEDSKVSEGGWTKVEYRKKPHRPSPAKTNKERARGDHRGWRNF

In turn, `Cc1cc([C@@H](C)Nc2ccccc2C(=O)O)c2nc(N3CCOCC3)cc(=O)n2c1` [AZD-6482] showed a % of control in assay [1] of 97%. Regarding `CN(C)C/C=C/C(=O)Nc1ccc(C(=O)N2CCCC(Nc3ncc(Cl)c(-c4c[nH]c5ccccc45)n3)C2)cc1` (configuration not stated), the % of control in [2] was found to be 69%. As for `COc1cc(Nc2nc(C)cc(-c3cnn4nc(OC)ccc34)n2)cc(C(F)(F)F)c1`, the % of control in assay [3] stood at 77%; in assay [4], 85%.

Turning to `C=CC(=O)Nc1cc(-n2c(=O)ccc3cnc4ccc(-c5ccc(NS(C)(=O)=O)cc5)cc4c32)ccc1C`, the % of control worked out at 99% in assay [5] (at 1 µM), 85% in assay [5] (at 10 µM), 100% in assay [6] (at 1 µM) and 100% in assay [6] (at 10 µM).

Compound `O=C(NOC[C@H](O)CO)c1ccc(F)c(F)c1Nc1ccc(I)cc1F` came in with a % of control in [7] of 47%. In turn, `CNC(=O)Nc1ccc(-c2nc(N3CC4CCC(C3)O4)c3cnn(C4CCC5(CC4)OCCO5)c3n2)cc1` gave a % of control in assay [8] of 100%. Consider `CC[C@@H]1[C@H](F)C(=O)N[C@@H]1COc1nccc2cc(C(N)=O)c(OC)cc12` [ZIMLOVISERTIB], for which the % of inhibition was -1.08% in assay [9] and 21.1% in assay [10].
